# System: hippocampal CA3 pyramidal neurons
# Assay: Response of hippocampal CA3 pyramidal neurons to WAY 100635 after 3-day treatments (5-HT1A tonus)
# Type: in vivo, rat
# Experimental: FIGS. 8A to 8C. […] Single-cell extracellular recordings were performed in the CA3 region of chloral-hydrate anaesthetized rats by using multiple-barrel glass microelectrodes, combined with microiontophoretic pumps (with the central barrel used for recordings). Pyramidal neurons were identified according to the classical criteria (see Example 5, the experimental procedures). The 5-HT4 agonists were administered through the use of osmotic minipumps, inserted subcutaneously in the region of the back. Recordings were performed with the minipumps still in place. *p<0.05, **p<0.01, ***p<0.001 vs control, Dunnett's test. […] FIG. 8C is a typical example showing the response of a single pyramidal neuron to cumulative doses of WAY 100635, in a rat co-administered with RS 67333 (same treatment as above for FIG. 8A) and the 5-HT depleter para-chlorophenylalanine (pCPA; 150 mg/kg, i.p. once daily 72, 48 and 24 h before the recordings).
# Drugs and Chemicals. The following compounds were used: GR 125487 sulphamate, prucalopride monohydrochloride, citalopram hydrobromide (gifts from Glaxo, Janssen and Lundbeck laboratories, respectively), RS 67333 hydrochloride (Tocris Cookson Inc., Ellisville, Mo., USA), WAY 100635 hydrochloride (Research Biochemicals, Natick, Mass., USA), pCPA methyl ester hydrochloride, BrdU (Sigma-Aldrich Canada, Oakville, Ontario, Canada). All compounds were diluted in distilled water. All drug dosages refer to the free base. For chronic treatments, prucalopride (2.5 mg/kg/day), RS 67333 (1.5 mg/kg/day) or the vehicle were delivered through osmotic minipumps (Alza, Palo Alto, Calif., USA), inserted subcutaneously in the region of the back under short-duration (≦5 min) halothane anesthesia. The 5-HT depleter PCPA was administered once daily at the dose of 150 mg/kg, i.p., 72, 48 and 24 h before the recordings. BrdU treatments consisted of two administrations per day (50 mg/kg, i.p. each, 8 h interval), starting from the day of minipump insertion until day 2 post-surgery.
# Microiontophoresis and extracellular recordings from hippocampal CA3 pyramidal neurons. Recording and microiontophoresis were performed with five-barreled glass micropipettes broken back to 8-12 μm under microscope control. The central barrel was filled with the same solution as in the DRN and was used for extracellular unitary recordings. Pyramidal neurons were identified by their large amplitude (0.5-1.2 mV) and long-duration (0.8-1.2 ms) simple spikes alternating with complex spike discharges (Kandel and Spencer, 1961). The side barrels contained the following solutions: quisqualate (1.5 mM in 200 mM NaCl, pH 8), WAY 100635 (15 mM in 200 mM NaCl, pH 4), and 2 M NaCl used for automatic current balancing. Rats were mounted in the stereotaxic apparatus and the micropipettes were lowered at 4.2 mm lateral and 4.2 anterior to lambda into the CA3 sub-region of the dorsal hippocampus.
# The firing activity of dorsal hippocampus pyramidal neurons was then recorded in the CA3 subfield, before and after systemic administration of the selective 5-HTLA antagonist WAY 100635.
structure (smiles),measurement,setting,value
"N[C@@H](Cc1ccc(Cl)cc1)C(=O)O (racemic) [pCPA, para-chlorophenylalanine]",quisqualate ejection currents needed to activate CA3 pyramidal neurons,rats co-treated with RS 67333 and pCPA,0 to −2 nA
same,effect of pCPA on the facilitory action of WAY 100635,"rats treated with RS 67333, pCPA 150 mg/kg i.p. 72, 48 and 24 h before",totally abolished
same,effect of pCPA on CA3 neuron firing activity and response to WAY 100635,vehicle group,no effect per se

# — patent US20090170899A1, “Stimulators of 5-HT4 receptors and uses thereof” (priority 2004, published 2009)
